Reference: patent publication US10478421B1, “Sortilin binding compounds, formulations, and uses thereof” (University of Florida, priority 2016, dated 2019)
Residues, ends and D or L forms follow the SMILES beside them.

Target: T1, hsortilin (Homo sapiens, UniProt Q99523)
T1 construct: Human sortilin (hsortilin) (Ser78-Asn755) with C-terminal 6-His tag; purchased R&D Systems, Inc. (Minneapolis, Minn.)
T1 sequence (Q99523 78-755): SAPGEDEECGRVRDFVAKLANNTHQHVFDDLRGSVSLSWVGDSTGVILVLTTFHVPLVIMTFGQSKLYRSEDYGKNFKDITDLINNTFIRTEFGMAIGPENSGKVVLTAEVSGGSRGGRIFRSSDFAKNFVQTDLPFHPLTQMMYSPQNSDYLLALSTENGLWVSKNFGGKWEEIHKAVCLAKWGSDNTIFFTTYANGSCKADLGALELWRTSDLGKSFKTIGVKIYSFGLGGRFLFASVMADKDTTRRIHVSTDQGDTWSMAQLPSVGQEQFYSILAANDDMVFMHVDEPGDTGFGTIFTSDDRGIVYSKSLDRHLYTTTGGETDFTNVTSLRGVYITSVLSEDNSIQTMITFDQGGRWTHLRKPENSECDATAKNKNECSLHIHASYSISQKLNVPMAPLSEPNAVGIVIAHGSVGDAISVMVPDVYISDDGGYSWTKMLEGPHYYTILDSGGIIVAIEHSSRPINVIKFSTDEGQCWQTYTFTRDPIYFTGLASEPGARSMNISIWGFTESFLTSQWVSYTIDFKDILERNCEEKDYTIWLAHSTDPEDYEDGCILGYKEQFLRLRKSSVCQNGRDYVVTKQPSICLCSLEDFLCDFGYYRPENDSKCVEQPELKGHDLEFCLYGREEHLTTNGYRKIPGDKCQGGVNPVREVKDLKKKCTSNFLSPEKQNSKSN
Test: Surface plasmon resonance on hsortilin immobilized on CM7 chips (Example 2)
Format: binding
Description: Surface plasmon resonance (SPR) measurements were performed on a Biacore T200 instrument equipped with two separate CM7 sensor chips, one with about 20,000 response units (RU) and another with about 27,000 RU of hsortilin covalently immobilized. […] For all other SPR injections, regeneration consisted of injections of running buffer alone. GE BIAcore T200 evaluation software version 3.0 (BIAevaluate) was used to analyze and export results. […] PIP3 containing nanodiscs were flowed at 2:1 dilutions to obtain kinetic data fitted using about 27,000 RU CM7 surface. Kinetic fit generated with BIAevaluate and local Rmax using Langmuir 1:1 binding model exported from BIAevaluate to Microsoft Excel 2016 with fit indicated by the black line.

Row | Kd (C-term NT alone, steady state) | IC50 (100 nM NT, read-out: IC50 for inhibition of full length NT binding to sortilin) | SMILES
1 | 138 nM | – | CC[C@H](C)[C@H](NC(=O)[C@H](Cc1ccc(O)cc1)NC(=O)[C@@H]1CCCN1)C(=O)N[C@@H](CC(C)C)C(=O)O [C-term NT, P—Y-I-L, reference compound] (H-PYIL-OH; N-terminus and C-terminus assumed)
2 | – | ~750 nM | CCCC(=O)OC[C@H](COP(=O)(O)O[C@H]1[C@H](O)[C@@H](OP(=O)(O)O)[C@H](OP(=O)(O)O)[C@@H](OP(=O)(O)O)[C@H]1O)OC(=O)CCC [diC4-PIP3, dibutanoyl PIP3, reference compound]
